Reference: US8906897B2, “Antimicrobial agents based on hemin derivatives” (Obschestvo S Ogranichennoi Otvetstvennostiyu …, priority 2009, dated 2014)
Converted amounts (≈) assume the structure as drawn.

Tests used:
Type in all cases: cell-based
Candida albicans No. 927 = experiment: Antifungal activity, culture growth with pH indicator; set-up: key to Test culture growth at various dilutions of the agent: (−) No growth; the indicator is blue; (±) Weak growth; the indicator is yellow, but the precipitate of grown cells looks as a diffuse spot; (+) Strong growth; the indicator is yellow, and the cell precipitate looks as a compact spot
Description: The subjects of action were Cryptococcus neoformans No. 3465 museum strain cells and Candida albicans No. 927 museum strain cells grown for one day on a glucose-peptone-yeast medium at 32° C. The reference compounds were the following antimycotics: pimafucin, amphotericin, and fluconazole.
Experiments were carried out on round-bottomed 96-well plates (Lenmedpolimer) in two replicas. To the first column (0), added was 10 μL of the stock solution of a water-soluble agent with concentrations of 10^−2 to 10^−3 mol/L; to the second column, added was also the same 10 μL plus 10 μL of the solvent corresponding to the given compound, suspended, 10 μL was transferred to the next well, and so on to the 8th well of the row. Stock solutions of water-insoluble compounds of general formula (I) (compounds V, VIII, XII, XIII, XIV, and hemin) were prepared in DMSO and were diluted with DMSO and the medium. DMSO concentrations in the reaction mixture in a well were ≦5%.
Then, to every well added was 190 μL of a Cr. neoformans cell culture suspension in a synthetic nutritional medium (so that the final cell concentration was approximately 10^3 CFU/mL), this medium containing Bromocresol Blue as a pH-indicator (pH: 5.5; indicator color: blue). As pH reduced to 4.5, the indicator in the culture changed its color to yellow, thereby indicating fungal cell growth. The synthetic medium comprised the following components: salts, amino acids, microelements, vitamins, an antibiotic, and glucose (30 components altogether) [Yarrow, D., “Methods for the Isolation, Maintenance and Identification of Yeasts,” in: The Yeasts. A Taxonomic Study, Ed. by Kurtsman, C. P, and Fell, M., Elsevier, 1998, pp. 77-100]. After being inoculated with a Cr. neoformans cell suspension, the plate was incubated at 32° C. for 1 h with stirring, then transferred to a stationary thermostat and incubated for two and five days at 27° C. After being inoculated with a C. albicans cell suspension, the plates were incubated for 1 h at 32° C. with stirring, then transferred to a stationary thermostat and incubated for one and four days at 27° C.

[1] = system: Enterococcus faecalis BKM B-871; experiment: Antibacterial activity (MIC/MBC), serial dilutions in liquid MH medium
Description: (§1) The antibacterial activity of compounds was determined against Bacillus subtilis BKM B-501, Staphylococcus aureus 209P, Enterococcus faecalis BKM B-871, and Micrococcus luteus BKM Ac-2230 strains (acquired from the All-Russia Collection of Microorganisms at the Institute for Biochemistry and Physiology of Microorganisms, Russian Academy of Sciences). The main parameters characterizing the antibacterial activity are the minimal inhibitory concentration (MIC) and minimal bactericidal concentration (MBC). […] MBC is the least concentration that causes the death of all cells.
(§2) MIC was quantified by inhibiting culture growth in a liquid medium with serial dilutions of compounds using a modified procedure [Amsterdam, D., “Susceptibility Testing of Antimicrobials in Liquid Media,” in Antibiotics in Laboratory Medicine, Ed. by Lorian, V., 4th ed., Baltimore: Williams and Wilkins, 1996, pp. 52-111].
(§3) Bacteria were cultured and tests were carried out on an MH liquid medium (Mueller-Hinton medium: a dry extract of beef broth, 4 g/L; starch, 1.5 g/L; casein hydrolyzate, 17.5 g/L; Sigma-Fluka Catalog No. 70192) at 37° C., 100% humidity, and under stirring. Cultures (4th through 7th receeding post-thawing) in the exponential growth phase were used for tests.
(§4) Therefore, a correction for absorption was applied in estimating the optical density of bacterial suspensions for each compound with account for its concentration in the well.
(§5) The protocol for experimental antibacterial activity determination for tested compounds was as follows. A cryovial with the test strain culture (Bacillus subtilis BKIVI B-501, Staphylococcus aureus 209P, Enterococcus faecalis BKM B-871, or Micrococcus luteus BKIVI Ac-2230) in a medium with 7% DMSO stored in liquid nitrogen, was rapidly defrosted, and 1.5 mL of the fresh MH medium was inoculated with 100 μL of the cell suspension. Cells were grown for one day at 37° C. and stirred on an orbital shaker at 150 rpm. The morphologic features of the strain and the absence of contamination with foreign bacteria were verified by: (a) inoculation on an agarized (15 g/L agar) MH medium and observation of the shape and color of the grown colonies and (b) examination of characteristic morphologic features under a microscope (Mikmed-2, LOMO, Russia) equipped with a 40× objective lens. Further bacteria were cultured in 1 mL of the liquid MH medium at 37° C. under stirring. The cells were reseeded every day. Cell cultures were used in tests starting with 3rd reseeding and ending with 6th one.
(§6) For testing, 5 μL of a bacterial suspension in the stationary growth phase was transferred to 1 mL of a sterile MH medium and incubated until the exponential growth phase was attained (3 to 5 h, 37° C., stirring at 150 rpm). To estimate the microorganisms concentration, the optical density (A) of the resulting bacterial culture was measured at a wavelength of 595 nm. The value of A=0.2 measured from a […] portion of the cell suspension in a 96-well plate, with a correction for the medium absorption applied, was set to correspond to 4×10^8 cells/mL for both strains used. Taking into account the cell concentration measurements, the suspension was diluted with the MH medium to a concentration of from 5×10^4 to 1×10^5 cells/mL and transferred to a sterile 96-well plate in an amount of 100 μL, per well. Then, the cells were added with tested compounds and twofold serial dilutions of these compounds in plate's wells were made.
(§7) The controls used were: 100 μL of an additive-free bacterial culture (four wells); a bacterial culture added with 1% DMSO or water in the same volume as in the wells with the maximal concentration of the tested compounds (four wells); and 100 μL of the sterile MH medium without bacteria and without tested compounds for control of occasional contamination in the plate (four wells).

[2] = system: Micrococcus luteus BKM Ac-2230; experiment: as above
Description: as §1, §2, §3, §4, §5, §6, §7

[3] = system: Bacillus subtilis BKM B-501; experiment: as above
Description: as §1, §2, §3, §4, §5, §6, §7

[4] = system: Staphylococcus aureus 209P; experiment: as above
Description: as §1, §2, §3, §4, §5, §6, §7

Cryptococcus humicolus = experiment: Antifungal activity against cryptococcosis causative agent (MSC)
[5] = system: Staphylococcus aureus No. 25923 ATCC; experiment: Specific activity against resistant bacterial strains
Description: (§8) The tested agents were water-soluble hemin derivatives (compounds VII and XVIII) or DMSO-soluble derivatives (compounds VIII, XV, and XIV). Vancomycin was the reference compound. Each compound was tested in three replicas.
(§9) Sterile single-use flat-bottomed 96-well plates, Petri dishes, pipettes, tips, and test tubes (Pan-Eco, Moscow) were used in the study.
(§10) The nutritional media used were as follows. A working Mueller Hinton broth was prepared from dry media (Mueller Hinton broth, Acumedia, Baltimore) and sterilized by autoclaving at 121° C. for 15 min.
(§11) Staphylococcus aureus was cultured on the Tripticase Soy Agar (BBL) commercially available dry medium. Enterococcus faecalis was cultured on the Columbia Agar Base (BBL) commercially available dry medium. These media were sterilized by autoclaving at 121° C. for 15 min.
(§12) Bacterial inoculum was fixed and equal to 5×10^5 CFU/mL.
(§13) For water-soluble compounds, wells from 2nd through 8th were added with the solvent (water) in an amount of 15 μL per well, then the 1st well was added with 30 μL of the stock solution of the tested compound in water with a concentration of 1×10^3M, and the concentration was adjusted to 0.007×10^3 M by serial twofold dilutions. A 10-μL portion was taken from every well, and 190 μL of the bacterial culture (10^5 CFU) was added per well.
(§14) For DMSO-soluble compounds, wells from 2nd through 8th were added with the solvent (DMSO) in an amount of 10 μL per well, then the 1st well was added with 20 μL of the stock solution of the tested compound in […] with a concentration of 5×10^3M, and the concentration was adjusted to 0.039×10^3 M by serial twofold dilutions. A 2-μL portion was taken from each well, and 198 μL of the bacterial culture (10^5 CFU) was added per well.
(§15) The control comprised wells free of tested compounds (culture growth control). In addition, purity control of nutritional media and solvents was used. Plates were incubated in a thermostat at 36° C. for 24 hours.
(§16) Culture growth was evaluated visually by comparison of how microorganisms grew in the presence of tested compounds and in the absence of them. MSC (the minimal suppressing concentration) was set equal to the last dilution of a tested agent which suppressed bacterial culture growth.

[6] = system: Enterococcus faecalis No. 559; experiment: as above
Description: as §8, §9, §10, §11, §12, §13, §14, §15, §16

[7] = system: Staphylococcus aureus No. 100 KC; experiment: as above
Description: as §8, §9, §10, §11, §12, §13, §14, §15, §16

[8] = system: Enterococcus faecium No. 569; experiment: as above; conditions: Ent. faecium 569; 24 h, 36° C.
[9] = system: Staphylococcus epidermidis No. 533; experiment: as above; conditions: St. epiderm 533; 24 h, 36° C.
Description: as §8, §9, §10, §11, §12, §13, §14, §15, §16

## Protohemin IX 6(7)-Mono(-Val-Gly-Ala-D-Leu-Ala-D-Val-Val-D-Val-Trp-D-Leu-X-D-Leu-Trp-D-Leu-Trp-NH—CH2CH2OH)amide [Compound XII]
Candida albicans No. 927; dilution 0: 1 × 10^−4 M
  Test culture growth at various dilutions of the agent: ±
Candida albicans No. 927; dilution : 2 of 1 × 10^−4 M
  Test culture growth at various dilutions of the agent: ±
Candida albicans No. 927; dilution : 4 of 1 × 10^−4 M
  Test culture growth at various dilutions of the agent: ±
Candida albicans No. 927; dilution : 8 of 1 × 10^−4 M
  Test culture growth at various dilutions of the agent: +
Candida albicans No. 927; dilution : 16 of 1 × 10^−4 M
  Test culture growth at various dilutions of the agent: +
Candida albicans No. 927; dilution : 32 of 1 × 10^−4 M
  Test culture growth at various dilutions of the agent: +
Candida albicans No. 927; dilution : 64 of 1 × 10^−4 M
  Test culture growth at various dilutions of the agent: +
[1]
  MBC: >50^3 μM
[1]; 20 h, MH medium
  MIC: 50 µM
[2]
  MBC: >6.3^3 μM
[2]; 20 h, MH medium
  MIC: 1.6 µM
[3]
  MBC: 38 ± 13 µM
[3]; 20 h, MH medium
  MIC: 38 ± 13 µM
[4]
  MBC: >50^2 μM
[4]; 20 h, MH medium
  MIC: 50 µM
Cryptococcus humicolus
  MSC: 12.5 µM

## CN[C@H](CC(C)C)C(=O)N[C@H]1C(=O)N[C@@H](CC(N)=O)C(=O)N[C@H]2C(=O)N[C@H]3C(=O)N[C@H](C(=O)N[C@H](C(=O)O)c4cc(O)cc(O)c4-c4cc3ccc4O)[C@H](O)c3ccc(c(Cl)c3)Oc3cc2cc(c3O[C@@H]2O[C@H](CO)[C@@H](O)[C@H](O)[C@H]2O[C@H]2C[C@](C)(N)[C@H](O)[C@H](C)O2)Oc2ccc(cc2Cl)[C@H]1O [Vancomycin, reference compound]
[5]; Staphylococcus aureus, NO.25923ATCC, read-out: MICs for Vancomycin
  MIC: 1 µg/mL (≈ 0.69 µM)
[6]; Enterococcus faecalis, NO.559, read-out: MICs for Vancomycin
  MIC: 1 µg/mL (≈ 0.69 µM)
[7]; Staphylococcus aureus, NO.100KC, read-out: MICs for Vancomycin
  MIC: 1 µg/mL (≈ 0.69 µM)

## C=CC1=C(C)c2cc3[n-]c(cc4nc(cc5[n-]c(cc1n2)c(C)c5CCC(=O)N[C@@H](CCCNC(=N)N)C(=O)N[C@@H](CCCNC(=N)N)C(=O)OC)C(CCC(=O)N[C@@H](CCCNC(=N)N)C(=O)N[C@@H](CCCNC(=N)N)C(=O)OC)=C4C)c(C)c3C=C.[Cl-].[Fe+3] [Compound XXI, 6,7-bis[(N^α-L-Arginyl Methyl Ester)-L-Arginyl]-Protohemin IX]
[8]
  MICs for hemin derivatives against Gr+ strains: >50 µM
[9]
  MICs for hemin derivatives against Gr+ strains: 50 µM
[5]; St. aureus 25923, 24 h, 36° C.
  MICs for hemin derivatives against Gr+ strains: 50 µM
[6]; Ent. faecalis 559, 24 h, 36° C.
  MICs for hemin derivatives against Gr+ strains: 50 µM
[7]; St. aureus 100 KC, 24 h, 36° C.
  MICs for hemin derivatives against Gr+ strains: 50 µM
